Our source for the Activity and inhibition values is ChEMBL document CHEMBL1141350, “Pentaketides relating to aspinonene and dihydroaspyrone from a marine-derived fungus, Aspergillus ostianus” (2007).

For assay [1], the system named is Staphylococcus aureus. The assay can be described thus: Antibacterial activity against methicillin-resistant Staphylococcus aureus at 100 ug/disc. The class given is functional, organism-based.
Assay [2] deals with L1210. Put plainly: Cytotoxicity against mouse L1210 cells at 25 ppm. The format is functional.

Usually inhibition stands for the share of the control response that was lost under treatment.

Calls of active or inactive are those of the source. No cut-off for these calls is given here.

For `C[C@H](O)/C=C/[C@@](O)(CO)[C@@H]1O[C@H]1C` [ASPINONENE], the result in assay [1] was inactive. The compound also gave an inhibition at 25 ppm in assay [2] of 27%. As to `C[C@H](O)/C=C(/C=C/[C@H](C)O)CO`, the outcome in assay [1] was inactive. Same read-out and setting: the same measure for `CC(=O)/C=C/C(=C/[C@H](C)O)CO`: “inactive”. Turning to `CO[C@](C(=O)O[C@@H](C)CC1=C[C@H](O)[C@@H](C)OC1=O)(c1ccccc1)C(F)(F)F`, in assay [2], the inhibition at 25 ppm worked out at 25%. Consider `C[C@H](O)/C=C(/C=C/[C@@H](C)O)CO`, for which the result in assay [1] and in assay [2] was inactive. On to `C[C@H](O)CC1=C[C@H](O)[C@@H](C)OC1=O`, for which the outcome in assay [1] was inactive.
